Experimental data from PMC4961458 (eLife, 2016).
Where two headings read alike, the source gives them in different places.

Legend:
[1] = molecular target: T1, GR (Homo sapiens, UniProt P04150); assay: GR competitive radioligand binding assay
T1 sequence (P04150 1-777): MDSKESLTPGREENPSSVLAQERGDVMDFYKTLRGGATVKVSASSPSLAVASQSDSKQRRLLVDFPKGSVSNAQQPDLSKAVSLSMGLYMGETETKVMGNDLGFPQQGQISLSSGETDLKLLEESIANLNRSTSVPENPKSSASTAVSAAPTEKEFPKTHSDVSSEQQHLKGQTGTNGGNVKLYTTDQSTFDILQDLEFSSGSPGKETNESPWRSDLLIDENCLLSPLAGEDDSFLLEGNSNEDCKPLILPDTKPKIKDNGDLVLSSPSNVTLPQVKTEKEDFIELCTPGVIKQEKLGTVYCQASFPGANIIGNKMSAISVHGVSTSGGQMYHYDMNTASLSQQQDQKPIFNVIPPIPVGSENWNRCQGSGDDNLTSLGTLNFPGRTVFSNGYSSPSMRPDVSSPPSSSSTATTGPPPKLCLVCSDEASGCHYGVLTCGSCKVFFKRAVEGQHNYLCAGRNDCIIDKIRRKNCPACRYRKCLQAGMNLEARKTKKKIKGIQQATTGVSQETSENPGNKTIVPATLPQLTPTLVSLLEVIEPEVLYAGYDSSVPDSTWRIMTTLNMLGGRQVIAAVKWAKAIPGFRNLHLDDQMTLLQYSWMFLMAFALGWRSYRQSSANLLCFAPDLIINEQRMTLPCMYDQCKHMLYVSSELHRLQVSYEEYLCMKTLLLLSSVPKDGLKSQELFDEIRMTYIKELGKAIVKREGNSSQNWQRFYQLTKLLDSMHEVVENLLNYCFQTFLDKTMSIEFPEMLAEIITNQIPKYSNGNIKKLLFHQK
Method: Reactions were conducted in 96-well plates in TEGM (10 mM Tris-HCl pH 7.2, 1 mM EDTA, 10% glycerol, 1 mM β-mercaptoethanol, 10 mM sodium molybdate). […] All reactions were set up in duplicates and incubated at 4°C overnight. Receptor-bound ^3H-DEX was isolated by ultrafiltration using a Unifilter-96 GF/C filter plate (Perkin Elmer), eluted in 30 µL Microscint-20 and quantified using a scintillation counter (Top Count).

[2] = test system: Ishikawa endometrial cells; assay: Alkaline phosphatase activity in Ishikawa endometrial cells; assay type: cell-based, human; details: absence of estrogen
[3] = test system: MCF7 ER.WT cells; assay: Cell viability, MCF7 ER.WT cells (7 days); assay type: cell-based; details: Homo sapiens; for EC50: absence of estrogen; for IC50: presence of estrogen (0.1 nM), read-out: Cell viability IC50, ER.WT +E2
[4] = test system: MCF7 cells; assay: MCF7 cell viability assay (CellTiter-Glo); assay type: cell-based, human; details: for IC50 / EC50: Homo sapiens; for EC50: absence of exogenous estradiol, Figure 1E, read-out: MCF7 cell viability EC50 (-E2)
[5] = molecular target: T2, MR (Homo sapiens, UniProt P08235); assay: MR transcriptional reporter assay, agonist mode (HEPG2 cells); assay type: cell-based; details: % of maximal aldosterone-stimulated activity
T2 construct: expressed in transfected cells; host or cells: HEPG2
T2 sequence (P08235 1-984): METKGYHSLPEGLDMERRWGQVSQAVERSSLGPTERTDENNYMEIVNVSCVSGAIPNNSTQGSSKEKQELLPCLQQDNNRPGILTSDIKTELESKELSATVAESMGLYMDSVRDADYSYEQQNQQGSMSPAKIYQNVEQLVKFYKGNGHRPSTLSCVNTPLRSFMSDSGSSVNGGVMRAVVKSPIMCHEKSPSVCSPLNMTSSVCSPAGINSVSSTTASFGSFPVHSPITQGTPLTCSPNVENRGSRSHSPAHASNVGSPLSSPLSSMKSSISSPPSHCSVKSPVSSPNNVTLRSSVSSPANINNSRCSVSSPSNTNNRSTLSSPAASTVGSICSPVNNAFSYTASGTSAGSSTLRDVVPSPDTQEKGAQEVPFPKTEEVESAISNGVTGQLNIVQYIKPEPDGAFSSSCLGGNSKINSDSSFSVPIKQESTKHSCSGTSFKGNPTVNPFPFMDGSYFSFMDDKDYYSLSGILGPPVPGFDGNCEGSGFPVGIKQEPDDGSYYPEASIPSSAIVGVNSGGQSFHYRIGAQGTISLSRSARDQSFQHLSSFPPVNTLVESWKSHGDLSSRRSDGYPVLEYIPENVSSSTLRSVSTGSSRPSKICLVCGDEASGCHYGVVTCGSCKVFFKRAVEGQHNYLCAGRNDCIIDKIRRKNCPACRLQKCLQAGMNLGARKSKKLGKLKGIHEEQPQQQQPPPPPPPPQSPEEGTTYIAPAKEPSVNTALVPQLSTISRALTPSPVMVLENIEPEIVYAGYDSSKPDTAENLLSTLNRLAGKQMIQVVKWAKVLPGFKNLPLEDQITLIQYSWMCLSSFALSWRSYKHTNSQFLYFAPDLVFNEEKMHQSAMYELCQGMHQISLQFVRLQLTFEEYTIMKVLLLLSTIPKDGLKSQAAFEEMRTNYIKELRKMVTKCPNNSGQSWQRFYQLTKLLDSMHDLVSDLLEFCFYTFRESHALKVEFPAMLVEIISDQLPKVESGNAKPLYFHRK
Method: Transcriptional assays were performed by seeding 100 μL of cells at a density of 250,000 cells/mL into 96-well cell culture plates in RPMI 1640 supplemented with 5% charcoal-stripped serum and allowed to attach overnight. […] Triplicate transfections were performed using 418 ng reporter vector (2X PRE-Luciferase for PR-A and PR-B, MMTV-Luciferase for MR), 50 ng CMVpRL (normalization vector), 10 ng NHR expression vector (CMX-PR-A, pCDNA-PR-B or 6R-MR), and 0.7 μL lipofectin. […] The final agonist concentration used in the antagonist assays was 1 nM. Following 24 hr incubation, the medium was removed and the cells were lysed in 40 μL of lysis buffer (25 mM Tris Phosphate, 2 mM CDTA, 10% Glycerol, 0.5% Triton X-100, 2 mM DTT). Firefly luciferase activity was measured immediately following the addition of 40 μL luciferase buffer (20 mM tricine, 0.1 mM EDTA, 1.07 mM (MgCO3)4 Mg(OH)2· 5H2O, 2.67 mM MgSO4, 33.3 mM DTT, 270 μM Coenzyme A, 470 μM luciferin, 530 μM ATP).

[6] = MCF7, 168 h, 7 days, read-out: Cell viability EC50, ER.WT -E2
[7] = 120 h, MCF7, 5 d incubation, read-out: Cell viability CellTiter-Glo IC50
[8] = MCF7, 120 h, read-out: MCF7 cell viability IC50 (+ 0.1nM E2), presence of 0.1 nM estradiol, 5 day, Figure 1F

SMILES | IC50 ([1]; 3.0 nM 3H-dexamethasone, read-out: GR IC50) [nM] | Alkaline phosphatase activity [2] | EC50 [3, 6] [nM] | IC50 ([3]; MCF7, 168 h, 7 days) [nM] | IC50 [4, 7] [nM] | IC50 [4, 8] [nM] | EC50 ([4]; MCF7, 120 h, 5 day) [nM] | Cell viability CellTiter-Glo Emax ([4]; MCF7, 5 d incubation) [% E2] | Emax [5] [%] | IC50 [1] [nM] | EC50 ([3]; MCF7, Figure 6—figure supplement 1D, read-out: Cell viability EC50, ER.WT (-E2)) [nM]
CC/C(=C(\c1ccc(O)cc1)c1ccc(OCCN(C)C)cc1)c1ccccc1 [4-OH Tam, 4-hydroxytamoxifen] | > 1800 | robustly increases alkaline phosphatase activity | 3.2 | 19 | 0.53 ± 0.25 | 30 | 3.9 | 48.0 ± 4.7 | 0 |  | 
C[C@]12CC[C@@H]3c4ccc(O)cc4C[C@@H](CCCCCCCCC[S+]([O-])CCCC(F)(F)C(F)(F)F)[C@H]3[C@@H]1CC[C@@H]2O (some centres unmarked) [Fulvestrant] |  | shows no such effect | 1.1 | 23 | 0.56 ± 0.7 | 9 | 0.5 | 25.4 ± 3.7 |  | 817 | 
CC/C(=C(/c1ccc(/C=C/C(=O)O)cc1)c1ccc2[nH]ncc2c1)c1ccc(F)cc1Cl [GDC-0810] |  | modestly increases alkaline phosphatase activity | 1 | 28 | 2.5 ± 2.1 | 25 | 1 | 24.6 ± 3.3 | 0.09 ± 0.16 |  | 0.7
